We go through 26 compounds from patent US12110288B2, “MASP-2 inhibitors and methods of use” (Omeros Corporation, priority 2019, dated 2024).

Structures can show the parent of a compound that is named as a salt. Some results are limits rather than exact numbers.

The Ki is a measure of affinity in units of concentration, obtained from inhibition or displacement. Higher therefore signals a looser hold on the target.

For this test, the target named is T1, MASP-2 (CCP1-CCP2-SP) (Homo sapiens, UniProt O00187).
T1 construct: 15 μL of Enzyme MASP-2 (CCP1-CCP2-SP) in Assay Buffer
T1 sequence (O00187 445-686 limits assumed): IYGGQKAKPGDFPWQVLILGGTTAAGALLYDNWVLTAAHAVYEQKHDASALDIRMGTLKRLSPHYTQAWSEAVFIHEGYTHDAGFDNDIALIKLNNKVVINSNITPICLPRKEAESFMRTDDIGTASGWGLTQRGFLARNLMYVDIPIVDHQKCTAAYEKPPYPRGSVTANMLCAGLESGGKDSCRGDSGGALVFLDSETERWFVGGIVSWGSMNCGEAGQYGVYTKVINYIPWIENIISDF
T1 sequence (O00187 298-444 partner limits assumed): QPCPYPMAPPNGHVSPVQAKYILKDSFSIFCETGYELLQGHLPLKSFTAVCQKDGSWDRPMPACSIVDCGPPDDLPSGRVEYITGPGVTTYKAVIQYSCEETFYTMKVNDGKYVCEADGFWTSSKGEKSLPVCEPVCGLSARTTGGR
The experiment in a line: Enzymatic Assay for MASP-2. The test is classed as biochemical. As to conditions: fluorogenic substrate based on C2 cleavage site, room temperature, 20 mM HEPES pH 7.4. As for the experimental part: Enzymatic Assay for MASP-2
The MASP-2 assay utilizes a fluorogenic substrate, based on the cleavage site for its natural substrate C2. The assay is run at room temperature in an assay buffer containing 20 mM HEPES, pH 7.4, 140 mM NaCl and 0.1% Tween 20. Assay parameters are adjusted such that the assay is linear with respect to time, enzyme, and substrate concentrations. Under these optimized assays conditions, IC50 values are equivalent to Ki values, except in a few cases of “tight binding” inhibitors. Cases of “tight binding” or possible “slow binding” inhibitors are handled by the methods described in Copeland R. A. (2013) Evaluation of Enzyme Inhibitors in Drug Discovery. 2nd Ed., John Wiley and Sons, Inc., Chapters 5-7.
The MASP-2 assay protocol is carried out as follows. Test compounds are serially diluted in DMSO and then 100 nL of each dilution is transferred to the assay plate(s). 10 μL of Assay Buffer is added, followed by 15 μL of Enzyme MASP-2 (CCP1-CCP2-SP) in Assay Buffer. 15 μL of Substrate in Assay Buffer is then added and mixed to start the reactions. After 20 min at room temperature, 15 μL of a stop solution (0.1 M acetic acid) is added, mixed and the plates are read on a SpectraMax i3x Microplate Reader and exported as Excel files. Each assay plate included a “no inhibitor” (DMSO Only) control, a “no enzyme” control and a reference inhibitor control. % Activity values=100*(average test comp. fluorescence−average “no enzyme” fluorescence)/(average “DMSO only” fluorescence−average “no enzyme” fluorescence). IC50 and Ki values are very reproducible, falling well within ±2-fold.
For `Cc1nc(N)ccc1CNC(=O)Cn1c(=O)c(NS(=O)(=O)Cc2ccccc2)cn(C)c1=O` [Compound 36, N-((6-Amino-2-Methylpyridin-3-yl)Methyl)-2-(3-Methyl-2,6-Dioxo-5-((Phenylmethyl)Sulfonamido)-3,6-Dihydropyrimidin-1(2H)-yl)Acetamide, Trifluoroacetate], the inhibitory constant (Ki) was more than 10000 nM.

In the case of `Cn1cc(NS(=O)(=O)Cc2ccccc2)c(=O)n(CC(=O)NCc2ccc(C(=N)N)cc2)c1=O` [Compound 37, N-(4-Carbamimidoylbenzyl)-2-(3-Methyl-2,6-Dioxo-5-((Phenylmethyl)Sulfonamido)-3,6-Dihydropyrimidin-1(2H)-yl)Acetamide, Trifluoroacetate], the Ki is 500 to 2500 nM.

On to `CNc1nc(Cl)c(-c2ccccc2)n(CC(=O)NCc2ccc(N)nc2C)c1=O` [Compound 38], for which the Ki was in the range of 500 to 2500 nM.

As for `Cc1nc(N)ccc1CNC(=O)Cn1c(-c2ccccc2)c(Cl)nc(N(C)C)c1=O` [Compound 39, N-((6-Amino-2-methylpyridin-3-yl)methyl)-2-(5-chloro-3-(dimethylamino)-2-oxo-6-phenylpyrazin-1(2H)-yl)acetamide], the Ki was in the range of 2500 to 10000 nM.

Compound `Cc1nc(N)ccc1CNC(=O)Cn1c(-c2ccccc2)c(Cl)nc(N2CCCC2)c1=O` [Compound 40, N-((6-Amino-2-methylpyridin-3-yl)methyl)-2-(5-chloro-2-oxo-6-phenyl-3-(pyrrolidin-1-yl)pyrazin-1(2H)-yl)acetamide] came in with a Ki of less than 500 nM.

As to `Cc1nc(N)ccc1CNC(=O)Cn1c(-c2ccccc2)c(Cl)nc(NCCc2ccccc2)c1=O` [Compound 41, N-((6-Amino-2-Methylpyridin-3-yl)Methyl)-2-(5-Chloro-2-Oxo-3-(Phenethylamino)-6-Phenylpyrazin-1(2H)-yl)Acetamide], the Ki lay in the range of 500 to 2500 nM.

`Cc1nc(N)ccc1CNC(=O)Cn1c(-c2ccccc2)c(Cl)nc(NC2COC2c2ccccc2)c1=O` (centres unmarked) [Compound 42]: the Ki is 500 to 2500 nM.

With `Cc1nc(N)ccc1CNC(=O)Cn1c(-c2ccccc2)cnc(N2CCCC2)c1=O` [Compound 43, N-((6-Amino-2-Methylpyridin-3-yl)Methyl)-2-(2-Oxo-6-Phenyl-3-(Pyrrolidin-1-yl)Pyrazin-1(2H)-yl)Acetamide], the Ki is less than 500 nM.

As for `Cc1nc(N)ccc1CNC(=O)Cn1c(-c2ccccc2)cnc(N2CCOCC2)c1=O` [Compound 44, N-((6-Amino-2-methylpyridin-3-yl)methyl)-2-(3-morpholino-2-oxo-6-phenylpyrazin-1(2H)-yl)acetamide], the Ki was less than 500 nM.

Regarding `CNc1ncc(-c2ccccc2)n(CC(=O)NCc2ccc(N)nc2C)c1=O` [Compound 45, N-((6-Amino-2-methylpyridin-3-yl)methyl)-2-(3-(methylamino)-2-oxo-6-phenylpyrazin-1(2H)-yl)acetamide], the Ki is less than 500 nM.

The compound `Cn1c(CNC(=O)Cn2c(-c3ccccc3)cnc(NCCc3ccccc3)c2=O)cc2cnccc21` [Compound 46, N-((1-Methyl-1H-Pyrrolo[3,2-c]Pyridin-2-yl)Methyl)-2-(2-Oxo-3-(Phenethylamino)-6-Phenylpyrazin-1(2H)-yl)Acetamide Trifluoroacetate] gave a Ki of less than 500 nM.

`O=C(Cn1c(-c2ccccc2)cnc(NCC2(c3ccccc3)COC2)c1=O)NCc1cc2cnccc2[nH]1` [Compound 47, N-((1H-pyrrolo[3,2-c]pyridin-2-yl)methyl)-2-(2-oxo-6-phenyl-3-(((3-phenyloxetan-3-yl)methyl)amino)pyrazin-1(2H)-yl)acetamide trifluoroacetate]: the Ki is less than 500 nM.

`O=C(Cn1c(-c2ccccc2)cnc(NCCCc2ccccc2)c1=O)NCc1cc2cnccc2[nH]1` [Compound 48, N-((1H-Pyrrolo[3,2-c]pyridin-2-yl)methyl)-2-(2-oxo-6-phenyl-3-((3-phenylpropyl)amino)pyrazin-1(2H)-yl)acetamide trifluoroacetate] came in with a Ki of less than 500 nM.

`O=C(Cn1c(-c2ccccc2)cnc(NC(CO)Cc2ccccc2)c1=O)NCc1cc2cnccc2[nH]1` (centres unmarked) [Compound 49, N-((1H-Pyrrolo[3,2-c]pyridin-2-yl)methyl)-2-(3-((1-hydroxy-3-phenylpropan-2-yl)amino)-2-oxo-6-phenylpyrazin-1(2H)-yl)acetamide trifluoroacetate] showed an inhibitory constant (Ki) of less than 500 nM.

Take `O=C(Cn1c(-c2ccccc2)cnc(NCC2(c3ccccc3)CCOC2)c1=O)NCc1cc2cnccc2[nH]1` (centres unmarked) [Compound 50, N-((1H-Pyrrolo[3,2-c]pyridin-2-yl)methyl)-2-(2-oxo-6-phenyl-3-(((3-phenyltetrahydrofuran-3-yl)methyl)amino)pyrazin-1(2H)-yl)acetamide trifluoroacetate]: the Ki was less than 500 nM.

Compound `O=C(Cn1c(-c2ccccc2)cnc(NC2(c3ccccc3)COC2)c1=O)NCc1cc2cnccc2[nH]1` [Compound 51, N-((1H-Pyrrolo[3,2-c]pyridin-2-yl)methyl)-2-(2-oxo-6-phenyl-3-((3-phenyloxetan-3-yl)amino)pyrazin-1(2H)-yl)acetamide trifluoroacetate] showed a Ki of less than 500 nM.

In turn, `O=C(Cn1c(-c2ccccc2)cnc(NCC2(c3ccccc3)CC2)c1=O)NCc1cc2cnccc2[nH]1` [Compound 52, N-((1H-Pyrrolo[3,2-c]pyridin-2-yl)methyl)-2-(2-oxo-6-phenyl-3-(((1-phenylcyclopropyl)methyl)amino)pyrazin-1(2H)-yl)acetamide trifluoroacetate] came in with a Ki of less than 500 nM.

Take `CC(C)(C)OC(=O)N1CCC2(CC1)CCN(c1ncc(-c3ccccc3)n(CC(=O)NCc3cc4cnccc4[nH]3)c1=O)C2` [Compound 53, Tert-Butyl 2-(4-(2-(((1H-Pyrrolo[3,2-c]Pyridin-2-yl)Methyl)Amino)-2-Oxoethyl)-3-Oxo-5-Phenyl-3,4-Dihydropyrazin-2-yl)-2,8-Diazaspiro[4.5]Decane-8-Carboxylate]: the Ki is less than 500 nM.

Turning to `O=C(Cn1c(-c2ccccc2)cnc(N2CCC3(CCNCC3)C2)c1=O)NCc1cc2cnccc2[nH]1` [Compound 54, N-((1H-Pyrrolo[3,2-c]Pyridin-2-yl)Methyl)-2-(2-Oxo-6-Phenyl-3-(2,8-Diazaspiro[4.5]Decan-2-yl)Pyrazin-1(2H)-yl)Acetamide Di-Trifluoroacetate], the Ki fell in the range of 500 to 2500 nM.

Compound `O=C(Cn1c(-c2ccccc2)cnc(NCC2(c3ccc(F)cc3)COC2)c1=O)NCc1cc2cnccc2[nH]1` [Compound 55, N-((1H-Pyrrolo[3,2-c]pyridin-2-yl)methyl)-2-(3-(((3-(4-fluorophenyl)oxetan-3-yl)methyl)amino)-2-oxo-6-phenylpyrazin-1(2H)-yl)acetamide trifluoroacetate] showed an inhibition constant Ki of less than 500 nM.

As for `O=C(Cn1c(-c2ccccc2)cnc(NCC2(c3ccccc3)CCC2)c1=O)NCc1cc2cnccc2[nH]1` [Compound 56, N-((1H-Pyrrolo[3,2-c]pyridin-2-yl)methyl)-2-(2-oxo-6-phenyl-3-(((1-phenylcyclobutyl)methyl)amino)pyrazin-1(2H)-yl)acetamide trifluoroacetate], the Ki was less than 500 nM.

As to `O=C(Cn1c(-c2ccccc2)cnc(NCC2(c3ccc(Cl)cc3)CC2)c1=O)NCc1cc2cnccc2[nH]1` [Compound 57, N-((1H-Pyrrolo[3,2-c]pyridin-2-yl)methyl)-2-(3-(((1-(4-chlorophenyl)cyclopropyl)methyl)amino)-2-oxo-6-phenylpyrazin-1(2H)-yl)acetamide trifluoroacetate], the Ki was less than 500 nM.

Take `O=C(Cn1c(-c2ccccc2)cnc(NCc2ccccc2)c1=O)NCc1cc2cnccc2[nH]1` [Compound 58, N-((1H-Pyrrolo[3,2-c]Pyridin-2-yl)Methyl)-2-(3-(Benzylamino)-2-Oxo-6-Phenylpyrazin-1(2H)-yl)Acetamide Trifluoroacetate]: the Ki is less than 500 nM.

With `O=C(Cn1c(-c2ccccc2)cnc(NCC2(c3ccc(F)cc3)CC2)c1=O)NCc1cc2cnccc2[nH]1` [Compound 59, N-((1H-Pyrrolo[3,2-c]pyridin-2-yl)methyl)-2-(3-(((1-(4-fluorophenyl)cyclopropyl)methyl)amino)-2-oxo-6-phenylpyrazin-1(2H)-yl)acetamide trifluoroacetate], the Ki is less than 500 nM.

Turning to `O=C(Cn1c(-c2ccccc2)cnc(NCC2(c3ccc(C(F)(F)F)cc3)CC2)c1=O)NCc1cc2cnccc2[nH]1` [Compound 60, N-((1H-Pyrrolo[3,2-c]pyridin-2-yl)methyl)-2-(2-oxo-6-phenyl-3-(((1-(4-(trifluoromethyl)phenyl)cyclopropyl)methyl)amino)pyrazin-1(2H)-yl)acetamide trifluoroacetate], the Ki is less than 500 nM.

For the compound `COc1ccc(C2(CNc3ncc(-c4ccccc4)n(CC(=O)NCc4cc5cnccc5[nH]4)c3=O)CC2)cc1` [Compound 61, N-((1H-Pyrrolo[3,2-c]pyridin-2-yl)methyl)-2-(3-(((1-(4-methoxyphenyl)cyclopropyl)methyl)amino)-2-oxo-6-phenylpyrazin-1(2H)-yl)acetamide trifluoroacetate], the Ki is less than 500 nM.
